For one data set, the system named is HIV BaL. Format: cell-based, HIV-1. The note with it: dried. The procedure:
Peptide was dissolved at 5 mg/ml in water, stored at ambient temperature, ca 23-27° C., and samples tested for biological activity in an HIV infection assay.
Inhibition of HIV infection is studied by utilizing an infection assay in which GHOST CD4 CCR5 cells are infected with HIV BaL, an R5 tropic isolate (Ruff, M R et al., 2001). Infection is detected via viral induction of the hGFP gene (green fluorescent protein) 48 hrs post-infection. Trays are measured in a plate reader to determine fluorescence intensity. All infections are performed by adding fresh culture medium containing approximately 1,000 infectious units of HIV-1 per well (96-well plates).
Samples were then aged by storage at ambient temperature (ca 25° C.) for 14 days prior to antiviral testing. […] In FIG. 5, only the short term 6 hour sample is stored at 4° C., while the other samples are stored at 37° C.
The peptide was dissolved in the indicated concentration of TFE in water and then shaken or agitated for 24 hrs at 37° C. The peptide was subsequently dried down, and the TFE/water mixture removed under vacuum. […] Although TFE is removed, residual traces of TFE within acceptable range for human consumption may remain.
Inhibition of HIV infection was studied by utilizing an infection assay using GHOST CD4 as previously described by Ruff, M R et al., 2001. CCR5 cells are infected with HIV BaL, an R5 tropic isolate. Infection is detected via viral induction of the hGFP gene (green fluorescent protein) about 48 hours post-infection. Trays were measured in a plate reader to determine fluorescence intensity. All infections were performed by adding fresh culture medium containing approximately 1,000 infectious units of HIV-1 per well (96-well plates).

For data set [1] the following is noted: 2 mg three times daily intranasally, cited from earlier work.
Data set [2] has as its system HIV. The note with it: cited from earlier work.
The conditions of data set [3]: cited from earlier work.
A further data set has as its system envelop (gp120). The note with it: 1987 report; cited from earlier work.
For data set [4] the following is noted: Phase I, human; cited from earlier work.
Data set [5] is described as follows: DAPTA fibril formation / aggregation in solution by EM (Example 3). Format: physicochemical. As for the experimental part: Preparation of DAPTA solutions. DAPTA was dissolved in water, and solutions maintained at various temperatures and times. To prepare fibrils, DAPTA was prepared at 10 mgs/mL in water and stored overnight at 4° C.
Determining fibril formation.
In solution, DAPTA can be shown to form ordered aggregates by EM, FTIR, and CD and dye binding. Aggregation is promoted by concentration, increased ionic strength, and reduced temperature. Although the kinetics of aggregation appear to vary, from preparation to preparation, aggregation appears to be a property associated with all batches of DAPTA examined as measured by EM.
Fibrillization can be observed in solutions prepared in 0.9% saline (10 mg/mL) when stored at 4° C. in less than 1 hour. At room or ambient temperature, fibril formation can be observed within 48 hours, although there is variation from preparation to preparation. In distilled water, DAPTA solutions at 10 mg/ml readily form aggregates at 4 deg. C., within 2 hrs, and at room temperature, within 1-7 days.

The conditions of data set [6]: patients with moderate neuro-psychological impairment; cited from earlier work.
For data set [7] the following is noted: subcutaneously, cited from earlier work.
For data set [8] the following is noted: 6 mg/day for 12 weeks; cited from earlier work.
Data set [9] has as its system HIV. Nature of the data set: Inhibition of HIV infectivity in vitro by stored DAPTA solutions. In kind it is cell-based. As for the experimental part:
Aggregation is discovered to be associated with a loss of biological activity in vitro. Typically, the recommended protocol is to have DAPTA stored at 0.1 mM solutions in water at 4° C.
Aggregation is reduced in the presence of trifluoroethanol (TFE). TFE was selected because of its property of reducing certain types of protein-protein interactions. DAPTA was dissolved in either distilled water, or solutions containing between 60% and 100% TFE. Aggregation was evaluated by assaying inhibition of HIV infectivity, in vitro. […] Also, TFE is capable of disassociating preformed aggregates of DAPTA. Aggregates of DAPTA, formed in distilled water were disrupted by addition of TFE to 80%, as measured by EM.

In a further data set the test system is isolated nasal cilia. Conditions: cited from earlier work.
The test system of the next data set is nasal mucosa. The note with it: in vivo; cited from earlier work.

Read-outs that look alike come from different tables or passages of the source. Some results are limits rather than exact numbers.

In the case of D-ala^1-peptide T-amide [DAPTA], the “Percent Reduction in HIV Infection” value in the data set on HIV BaL (0.1 nM DAPTA, TFE Concentration 40 %, shaken 24 hrs at 37° C., reconstituted in water, stored about 3 days) is given as 0 ± 2%; in the data set with HIV BaL (0.1 nM DAPTA, TFE Concentration 60 %, shaken 24 hrs at 37° C., reconstituted in water, stored about 3 days) it was 20 ± 4%; with HIV BaL (0.1 nM DAPTA, TFE Concentration 100 %, shaken 24 hrs at 37° C., reconstituted in water, stored about 3 days), 98 ± 3%; in the data set with HIV BaL (80% TFE, shaken 12 hrs at 37 degrees Celsius, in water about three days), 70 ± 4%; in the data set on HIV BaL (80% TFE, shaken 48 hrs at 37 degrees Celsius, in water about three days), 100 ± 3%; in the data set on HIV BaL (80% TFE, shaken about 24 hours at 37 ° C., in water about three days), 100 ± 5%. In addition, the “Percent Reduction in HIV Infection” value with HIV BaL (80% TFE, shaken about 24 hours at Room Temp., in water about three days) is listed as 70 ± 6%. The “Neuropsychological performance vs placebo” value in data set [1] (at least four months of treatment) is “no difference”. Also, the “Neuropsychological improvement after adjustment for baseline CD4 count” value in data set [1] was “greater improvement (p=0.07)”. Moreover, in the data set with HIV [2] (blind NIMH analysis), the “Virus levels in stored frozen plasma” value is recorded as “significant (p<0.04) treatment effect”. In addition, in the data set with HIV [2] (more cognitively impaired patients), the “Clinical benefits versus placebo” value is listed as “significant clinical benefits versus placebo”. The “Patients with improved neuro-psychological performance” value in data set [3] (high dose (15 mg daily)) was 4/5; in data set [3] (low dose (1.5 mg daily)) it was 1/4. The “Concentration that blocks envelop (gp120) binding and inhibits viral infectivity” value with envelop (gp120) is given as 10 pM. In addition, the Toxicity entry in [4] is given as “complete lack of toxicity”. Also, the “Time until fibrillization can be observed” value in data set [5] (0.9% saline, 10 mg/mL, 4° C.) is “less than 1 hour”. Also, the “Time until fibril formation can be observed” value in data set [5] (0.9% saline, 10 mg/mL, room or ambient temperature) was not above 48 h. Also, the “Effect of TFE on preformed aggregates, by EM” value in data set [5] (aggregates formed in distilled water, TFE added to 80%) is “disrupted”. The “Time until aggregates form” value in [5] (distilled water, 10 mg/ml, 4 deg. C.) was not above 2 h. Moreover, the “Cognitive and neuromotor function compared with controls” value in [6] is recorded as “improved”. Besides, the Adverse drug effects result in data set [7] (3 to 70 weeks) is “No adverse drug effects were noted”. The Lower limb pain result in data set [7] (initial dose 10 mg daily, nine individuals) was “complete or subjectively significant resolution of lower limb pain”. Further, in data set [8], the “Treatment of painful peripheral neuropathy vs placebo” value was “no statistically significant differences”. For the same substance, the “Storage time to substantial loss of activity (HIV uptake inhibition in vitro)” value in the data set with HIV [9] (0.1 mM solutions in water at 4° C.) is given as “about 6 weeks”. Also, in the data set on HIV [9] (stored in TFE between 60% and 100% vs water), the “Activity retained on storage (inhibition of HIV infectivity in vitro)” value is “retained more activity”.

For the substance benzalkonium chloride [BAC], in the data set on isolated nasal cilia, the Ciliotoxicity result was “ciliotoxic”. Besides, in the data set with nasal mucosa, the “Damage to the nasal mucosa” value is reported as “no significant damage”, the “Mucosal ciliary clearance after application” value is “slight prolongation”, the Nasal mucosal function entry is given as “no detectable effect” and the “Saccharine transport time or indicators of proinflammatory effects” value is “did not alter”.

These data come from patent publication US7390788B2, “Peptide pharmaceutical compositions” (priority 2005, dated 2008).
